Assay results reported in US8513270B2, “Substituted heterocycles as Janus kinase inhibitors” (Incyte Corporation, priority 2006, dated 2013).
Structures can show the parent of a compound that is named as a salt.

Experiments:
[1] = biological target: T1, human JAK2 (a.a. 828-1132) (Homo sapiens, UniProt O60674); test: In vitro JAK kinase assay (HTRF), JAK2; assay type: biochemical; details: JAK2, 30 μM ATP; read-out: EXAMPLE A HTS-JAK2 HTRF-2 IC50
T1 construct: JAK2 (a.a. 828-1132); His tag (N); made in house; host or cells: insect cells (baculovirus)
T1 sequence (O60674 828-1132): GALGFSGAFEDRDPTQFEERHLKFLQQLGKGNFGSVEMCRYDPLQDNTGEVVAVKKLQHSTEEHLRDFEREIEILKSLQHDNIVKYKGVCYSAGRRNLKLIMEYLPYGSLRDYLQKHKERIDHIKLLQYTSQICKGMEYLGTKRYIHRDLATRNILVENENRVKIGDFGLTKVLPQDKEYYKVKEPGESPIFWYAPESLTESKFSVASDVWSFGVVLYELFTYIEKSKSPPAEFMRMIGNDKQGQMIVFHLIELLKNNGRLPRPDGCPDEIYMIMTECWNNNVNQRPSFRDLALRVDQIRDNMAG
Protocol: (§1) Compounds herein were tested for inhibitory activity of JAK targets according to the following in vitro assay described in Park et al., Analytical Biochemistry 1999, 269, 94-104. The catalytic domains of human JAK1 (a.a. 837-1142), JAK2 (a.a. 828-1132) and JAK3 (a.a. 781-1124) with an N-terminal His tag were expressed using baculovirus in insect cells and purified. The catalytic activity of JAK1, JAK2 or JAK3 was assayed by measuring the phosphorylation of a biotinylated peptide. The phosphorylated peptide was detected by homogenous time resolved fluorescence (HTRF). IC50s of compounds were measured for each kinase in the reactions that contain the enzyme, ATP and 500 nM peptide in 50 mM Tris (pH 7.8) buffer with 100 mM NaCl, 5 mM DTT, and 0.1 mg/mL (0.01%) BSA. The ATP concentration in the reactions was 90 μM for JAK1, 30 μM for JAK2 and 3 μM for JAK3. Reactions were carried out at room temperature for 1 hr and then stopped with 20 μL 45 mM EDTA, 300 nM SA-APC, 6 nM Eu—Py20 in assay buffer (Perkin Elmer, Boston, Mass.). Binding to the Europium labeled antibody took place for 40 minutes and HTRF signal was measured on a Fusion plate reader (Perkin Elmer, Boston, Mass.).

[2] = biological target: T2, human JAK1 (a.a. 837-1142) (Homo sapiens, UniProt P23458); test: In vitro JAK kinase assay (HTRF), JAK1; assay type: biochemical; details: JAK1, 90 μM ATP; read-out: EXAMPLE A JAK2-JAK1 HTRF-2 IC50
T2 construct: human JAK1 (a.a. 837-1142); His tag (N); made in house; host or cells: insect cells (baculovirus)
T2 sequence (P23458 849-1154): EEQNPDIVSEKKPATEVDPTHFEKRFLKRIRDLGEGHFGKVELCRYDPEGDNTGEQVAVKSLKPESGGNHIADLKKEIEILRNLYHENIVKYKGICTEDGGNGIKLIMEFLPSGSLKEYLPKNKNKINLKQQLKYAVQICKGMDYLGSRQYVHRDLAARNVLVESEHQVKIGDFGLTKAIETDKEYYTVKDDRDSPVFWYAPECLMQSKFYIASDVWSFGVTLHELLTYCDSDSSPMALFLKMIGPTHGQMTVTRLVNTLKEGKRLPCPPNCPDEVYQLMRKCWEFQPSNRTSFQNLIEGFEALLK
Protocol: as §1

[3] = biological target: T3, human JAK3 (a.a. 781-1124) (Homo sapiens, UniProt P52333); test: In vitro JAK kinase assay (HTRF), JAK3; assay type: biochemical; details: JAK3, 3 μM ATP; read-out: EXAMPLE A JAK2-JAK3 HTRF-2 IC50
T3 construct: JAK3 (a.a. 781-1124); His tag (N); made in house; host or cells: insect cells (baculovirus)
T3 sequence (P52333 781-1124): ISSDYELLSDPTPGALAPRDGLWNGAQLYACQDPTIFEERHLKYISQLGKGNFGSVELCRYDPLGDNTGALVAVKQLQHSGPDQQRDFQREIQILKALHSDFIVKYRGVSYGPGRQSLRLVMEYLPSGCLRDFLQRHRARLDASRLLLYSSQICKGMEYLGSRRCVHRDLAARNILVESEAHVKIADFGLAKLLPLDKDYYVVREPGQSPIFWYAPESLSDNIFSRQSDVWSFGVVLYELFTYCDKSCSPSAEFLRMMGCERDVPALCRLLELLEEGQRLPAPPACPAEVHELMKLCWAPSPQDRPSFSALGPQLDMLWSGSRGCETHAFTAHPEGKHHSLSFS
Protocol: as §1

[4] = biological target: TF1-BCRABL1 cells (Homo sapiens, UniProt P00519); test: ABL1 cell based assay: viability of ABL1-dependent cell line (CellTiter-Glo); details: 72 hours, cell viability; read-out: EXAMPLE F JAK2-TF1-BCRABL1 IC50
TF1-BCRABL1 cells, sequence (P00519 whole entry, change not shown): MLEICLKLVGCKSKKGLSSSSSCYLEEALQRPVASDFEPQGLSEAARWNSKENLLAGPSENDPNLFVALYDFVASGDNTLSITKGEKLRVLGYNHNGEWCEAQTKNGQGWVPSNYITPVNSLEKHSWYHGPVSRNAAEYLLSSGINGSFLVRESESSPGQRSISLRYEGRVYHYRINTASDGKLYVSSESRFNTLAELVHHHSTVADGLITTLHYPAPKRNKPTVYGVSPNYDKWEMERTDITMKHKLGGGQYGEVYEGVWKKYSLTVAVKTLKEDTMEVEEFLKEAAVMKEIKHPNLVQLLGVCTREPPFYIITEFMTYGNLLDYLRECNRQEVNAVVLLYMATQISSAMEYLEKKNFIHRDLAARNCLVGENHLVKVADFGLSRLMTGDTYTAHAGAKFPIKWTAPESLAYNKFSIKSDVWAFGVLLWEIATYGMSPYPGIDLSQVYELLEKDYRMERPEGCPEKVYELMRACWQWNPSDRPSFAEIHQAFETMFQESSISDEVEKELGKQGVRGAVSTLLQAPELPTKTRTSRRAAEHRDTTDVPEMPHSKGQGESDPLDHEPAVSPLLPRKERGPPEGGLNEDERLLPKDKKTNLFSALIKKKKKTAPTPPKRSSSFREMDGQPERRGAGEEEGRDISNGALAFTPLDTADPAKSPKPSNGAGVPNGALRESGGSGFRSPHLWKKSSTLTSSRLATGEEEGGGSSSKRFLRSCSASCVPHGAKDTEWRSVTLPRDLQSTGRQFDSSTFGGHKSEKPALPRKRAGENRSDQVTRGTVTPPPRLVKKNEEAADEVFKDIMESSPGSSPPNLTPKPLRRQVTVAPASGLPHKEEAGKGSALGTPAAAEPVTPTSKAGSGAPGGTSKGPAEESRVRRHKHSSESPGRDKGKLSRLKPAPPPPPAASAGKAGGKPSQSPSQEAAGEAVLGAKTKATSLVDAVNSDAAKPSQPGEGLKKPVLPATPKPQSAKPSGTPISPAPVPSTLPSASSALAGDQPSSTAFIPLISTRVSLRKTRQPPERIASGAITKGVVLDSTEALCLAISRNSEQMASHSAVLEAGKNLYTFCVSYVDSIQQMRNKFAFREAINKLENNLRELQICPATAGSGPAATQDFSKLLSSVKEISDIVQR
Protocol: One or more compounds herein were tested for inhibitory activity of ABL1 targets according to at least one of the following cellular assays.
Cancer cell lines dependent on ABL1 kinase activity for proliferation and/or survival were plated at 3000 cells per well (96 well plate format) in RPMI 1640, and 10% FBS. Compounds were added to the cells in DMSO/media (final concentration 0.2% DMSO) and incubated for 72 hours at 37° C., 5% CO2. The effect of compound on cell viability was assessed using the CellTiter-Glo Luminescent Cell Viability Assay (Promega) followed by TopCount (Perkin Elmer, Boston, Mass.) quantitation. ABL1-dependent cell lines can include those naturally dependent on ABL1 activity or those engineered to be dependent on ABL1 activity (e.g. BaF/3 cells). The latter can be generated using wild-type ABL1 or mutant ABL1 (such as T315I ABL1) so that the activity of compounds can be assessed against different variants of the ABL1 kinase. Potential off-target effects of compounds were measured in parallel using a non-ABL1 driven cell line with the same assay readout. […] All experiments were performed in duplicate or greater.

IC50 [1]	IC50 [2]	IC50 [3]	Compound	GI50 [4]
≤ 0.5 µM	≤ 0.5 µM	≤ 0.5 µM	Cc1ccc(NC(=O)c2ccc(F)c(C(F)(F)F)c2)cc1-c1ccc2c(c1)[nH]c1ncncc12 [Example 4, 4-fluoro-N-[4-methyl-3-(9H-pyrimido[4,5-b]indol-7-yl)-phenyl]-3-(trifluoromethyl)benzamide]	≤ 0.5 µM
≤ 0.5 µM	≤ 0.5 µM	≤ 0.5 µM	Cc1ccc(NC(=O)c2cc(NCCCN(C)C)cc(C(F)(F)F)c2)cc1-c1ccc2c(c1)[nH]c1ncncc12 [Example 33, 3-{[3-(dimethylamino)propyl]-amino}-N-[4-methyl-3-(9H-pyrimido[4,5-b]indol-7-yl)-phenyl]-5-(trifluoromethyl)-benzamide]	≤ 0.5 µM
≤ 0.5 µM	≤ 0.5 µM	≤ 0.5 µM	Cc1ccc(NC(=O)c2cc(N3CCC(N(C)C)C3)cc(C(F)(F)F)c2)cc1-c1ccc2c(c1)[nH]c1ncncc12 (stereo not shown) [Example 37, 3-[3-(dimethylamino)-pyrrolidin-1-yl]-N-[4-methyl-3-(9H-pyrimido[4,5-b]indol-7-yl)phenyl]-5-(trifluoromethyl)-benzamide]	≤ 0.5 µM
≤ 0.5 µM	≤ 0.5 µM	≤ 0.5 µM	Cc1ccc(NC(=O)c2cc(C(F)(F)F)ccn2)cc1-c1ccc2c(c1)[nH]c1ncncc12 [Example 18, N-[4-methyl-3-(9H-pyrimido[4,5-b]indol-7-yl)-phenyl]-4-(trifluoromethyl) pyridine-2-carboxamide]	≤ 0.5 µM
≤ 0.5 µM	≤ 0.5 µM	≤ 0.5 µM	Cc1ccc(NC(=O)c2cc(N(C)C)cc(C(F)(F)F)c2)cc1-c1ccc2c(c1)[nH]c1ncncc12 [Example 36, 3-(dimethylamino)-N-[4-methyl-3-(9H-pyrimido[4,5-b]-indol-7-yl)phenyl]-5-(trifluoromethyl)benzamide]	≤ 0.5 µM
≤ 0.5 µM	≤ 0.5 µM	≤ 0.5 µM	Cc1ncc(NC(=O)c2cc(-n3cnc(CO)c3)cc(C(F)(F)F)c2)cc1-c1ccc2c(c1)[nH]c1ncncc12 [Example 75, 3-[4-(hydroxymethyl)-1H-imidazol-1-yl]-N-[6-methyl-5-(9H-pyrimido[4,5-b]indol-7-yl)pyridin-3-yl]-5-(trifluoromethyl)benzamide tris(trifluoroacetate) (salt)]	≤ 0.5 µM
≤ 0.5 µM	≤ 0.5 µM	≤ 0.5 µM	O=C(Nc1ccc(Cl)c(-c2ccc3c(c2)[nH]c2ncncc23)c1)c1cccc(C(F)(F)F)c1 [Example 17, N-[4-chloro-3-(9H-pyrimido-[4,5-b]indol-7-yl)phenyl]-3-(trifluoromethyl)benzamide]	≤ 0.5 µM
≤ 0.5 µM	≤ 0.5 µM	≤ 0.5 µM	Cc1ccc(NC(=O)c2cc(NCCCn3ccnc3)cc(C(F)(F)F)c2)cc1-c1ccc2c(c1)[nH]c1ncncc12 [Example 35, 3-{[3-(1H-imidazol-1-yl)-propyl]amino}-N-[4-methyl-3-(9H-pyrimido[4,5-b]indol-7-yl)phenyl]-5-(trifluoromethyl)-benzamide]	≤ 0.5 µM
≤ 0.5 µM	≤ 0.5 µM	≤ 0.5 µM	Cc1ccc(NC(=O)c2cc(-n3cnc(CN(C)C)c3)cc(C(F)(F)F)c2)cc1-c1ccc2c(c1)[nH]c1ncncc12 [Example 25, 3-{4-[(dimethylamino)methyl]-1H-imidazol-1-yl}-N-[4-methyl-3-(9H-pyrimido[4,5-b]-indol-7-yl)phenyl]-5-(trifluoro-methyl)benzamide]	≤ 0.5 µM
≤ 0.5 µM	≤ 0.5 µM	≤ 0.5 µM	Cc1ccc(NC(=O)c2cc(C(F)(F)F)ccc2F)cc1-c1ccc2c(c1)[nH]c1ncncc12 [Example 5, 2-fluoro-N-[4-methyl-3-(9H-pyrimido[4,5-b]indol-7-yl)-phenyl]-5-(trifluoromethyl)-benzamide]	≤ 0.5 µM
≤ 0.5 µM	≤ 0.5 µM	≤ 0.5 µM	Cc1ccc(NC(=O)c2cc(C(F)(F)F)cc(Cl)c2F)cc1-c1ccc2c(c1)[nH]c1ncncc12 [Example 8, 3-chloro-2-fluoro-N-[4-methyl-3-(9H-pyrimido[4,5-b]-indol-7-yl)phenyl]-5-(trifluoro-methyl)benzamide]	≤ 0.5 µM
≤ 0.5 µM	≤ 0.5 µM	≤ 0.5 µM	Cc1ncc(NC(=O)c2cc(NCCN(C)C)cc(C(F)(F)F)c2)cc1-c1ccc2c(c1)[nH]c1ncncc12 [Example 76, 3-[2-(dimethylamino)ethyl]amino-N-[6-methyl-5-(9H-pyrimido[4,5-b]indol-7-yl)pyridin-3-yl]-5-(trifluoromethyl)benzamide tris(trifluoroacetate)]	≤ 0.5 µM
≤ 0.5 µM	≤ 0.5 µM	≤ 0.5 µM	COc1ccc(C(=O)Nc2ccc(C)c(-c3ccc4c(c3)[nH]c3ncncc34)c2)cc1C(F)(F)F [Example 10, 4-methoxy-N-[4-methyl-3-(9H-pyrimido[4,5-b]indol-7-yl)-phenyl]-3-(trifluoromethyl)-benzamide]	≤ 0.5 µM
≤ 0.5 µM	≤ 0.5 µM	≤ 0.5 µM	Cc1ccc(NC(=O)c2cccc(C(F)(F)F)c2)cc1-c1ccc2c(c1)[nH]c1nc(N)ncc12 [Example 67, N-[3-(2-Amino-9H-pyrimido[4,5-b]indol-7-yl)-4-methylphenyl]-3-(trifluoro-methyl)benzamide trifluoroacetate]	≤ 0.5 µM
≤ 0.5 µM	≤ 0.5 µM	≤ 0.5 µM	Cc1ccc(NC(=O)c2cc(-n3ccnc3)cc(C(F)(F)F)c2)cc1-c1ccc2c(c1)[nH]c1ncncc12 [Example 23, 3-(1H-imidazol-1-yl)-N-[4-methyl-3-(9H-pyrimido[4,5-b]-indol-7-yl)phenyl]-5-(trifluoromethyl)benzamide]	≤ 0.5 µM
≤ 0.5 µM	≤ 0.5 µM	≤ 0.5 µM	Cc1ccc(NC(=O)c2cc(N3CCCC(O)C3)cc(C(F)(F)F)c2)cc1-c1ccc2c(c1)[nH]c1ncncc12 (stereo not shown) [Example 30, 3-(3-hydroxypiperidin-1-yl)-N-[4-methyl-3-(9H-pyrimido[4,5-b]indol-7-yl)phenyl]-5-(trifluoromethyl)benzamide]	≤ 0.5 µM
≤ 0.5 µM	≤ 0.5 µM	≤ 0.5 µM	Cc1ccc(NC(=O)c2cc(NCCN3CCOCC3)cc(C(F)(F)F)c2)cc1-c1ccc2c(c1)[nH]c1ncncc12 [Example 31, N-[4-methyl-3-(9H-pyrimido-[4,5-b]indol-7-yl)phenyl]-3-[(2-morpholin-4-ylethyl)amino]-5-(trifluoromethyl)benzamide]	≤ 0.5 µM
≤ 0.5 µM	≤ 0.5 µM	≤ 0.5 µM	Cc1ccc(NC(=O)c2cc(N3CCN(CCO)CC3)cc(C(F)(F)F)c2)cc1-c1ccc2c(c1)[nH]c1ncncc12 [Example 32, 3-[4-(2-hydroxyethyl)piperazin-1-yl]-N-[4-methyl-3-(9H-pyrimido[4,5-b]indol-7-yl)-phenyl]-5-(trifluoromethyl)-benzamide]	≤ 0.5 µM
≤ 0.5 µM	≤ 0.5 µM	≤ 0.5 µM	Cc1ccc(NC(=O)c2cc(-n3cnc(C=O)c3)cc(C(F)(F)F)c2)cc1-c1ccc2c(c1)[nH]c1ncncc12 [Example 20, 3-(4-Formyl-1H-imidazol-1-yl)-N-[4-methyl-3-(9H-pyrimido[4,5-b]indol-7-yl)phenyl]-5-(trifluoromethyl)benzamide trifluoroacetate]	≤ 0.5 µM
